Patent publication US7396672B2, “Method for the production of dinoflagellate cultures” (priority 2003, dated 2008)

Tests used:
Format in all cases: cell-based
[1] = system: diatoms; experiment: mixed phytoplankton in natural seawater samples; details: 2 mM mimosine, 6 days, diatoms dominant group in the control
Procedure: (§1) Whether mimosine can confer an advantage in the phytoplankton community by adding mimosine directly to natural seawater samples was therefore tested. Natural seawater samples were collected from Port Shelter (eastern Hong Kong) and filtered through a 100 μm mesh to remove all zooplankton immediately before use. Mimosine was then added at 2 mM and samples were taken for estimation of the percentage of dinoflagellates and diatoms. The samples were then incubated under the same conditions as in Example 1. Within 6 days, dinoflagellates became the dominant group. The dinoflagellate population increased from 30% to 60% of the total population (FIG. 2). The diatoms, which were the dominant group in the control, decreased to 10% of the total population in 6 days (at the time of measurement) upon treatment with mimosine.

[2] = system: dinoflagellates; experiment: mixed phytoplankton in natural seawater samples; details: 2 mM mimosine
Procedure: as §1

[3] = system: Isochrysis galbana (CCMP1323); experiment: cell proliferation assay, monoculture of phytoplankton; details: 8 days
Procedure: (§2) The effects of mimosine at low mM concentrations on pure cultures of four different groups of phytoplankton were tested. The phytoplankton tested were the Cryptophyceae Rhodomonas salina (CCMP1319), the Prymnesiophyceae Isochrysis galbana (CCMP1323), the Bacillariophyceae Cylindricus fusiformis (PCC100) and the dinoflagellate Heterocapsa triquetra (CCMP449). Cultures of phytoplankters were obtained from Bigelow Laboratory for Ocean Sciences (CCMP) or the Plymouth Culture Collection (PCC). The cultures were maintained in f/2 medium at 18° C., under photon flux of […] from fluorescent tubes (Phillips daylight) under a 14:10 hours light/dark cycle. For cell proliferation assays, exponentially growing cells were diluted ten times with fresh medium before the addition of mimosine to give cultures having a final mimosine concentration of 0.01, 0.1 and 1 mM. All chemicals were from Sigma Corporation unless otherwise stated. All growth studies were performed in triplicate. Cell counting was performed by Coulter counter and all samples were counted at least three times.

[4] = system: Rhodomonas salina (CCMP1319); experiment: as above; details: 8 days
Procedure: as §2

[5] = system: Cylindricus fusiformis (PCC100); experiment: as above; details: 8 days
Procedure: as §2

[6] = system: Heterocapsa triquetra (CCMP449); experiment: as above; details: 1 mM mimosine
Procedure: as §2

[7] = 0.01 and 0.1 mM mimosine, f/2 medium

NC(Cn1ccc(=O)c(O)c1)C(=O)O (stereo not drawn) [mimosine, α-amino-3-hydroxy-4-oxo-1-pyridine propanoic acid]
diatoms as percentage of the total population [1]: 10% | time until dinoflagellates became the dominant group ([2]; natural seawater): ≤ 6 days | dinoflagellate population as percentage of the total population ([2]; natural seawater (Port Shelter), 6 days, increased from 30%): 60% | cell number increase ([3]; 1 mM mimosine): no cell number increase | cell number compared to control treatment [3, 7]: slightly lower numbers of cells, though not significantly so | mean cell numbers significantly lower than those in the controls ([4]; 1 mM mimosine): 75% | cell number compared to control treatment [4, 7]: slightly lower numbers of cells, though not significantly so | mean cell numbers significantly lower than those in the controls ([5]; 1 mM mimosine): 25% | cell number compared to control treatment [5, 7]: slightly lower numbers of cells, though not significantly so | cell number compared to control treatment [6]: increased the cell number significantly
